{"source": "paper PMC4456216", "about": "(Nature structural & molecular biology, 2015)", "key": {"[1]": {"target": "CBP KIX domain", "assay": "Isothermal titration calorimetry", "set-up": "species or system mouse", "conditions": "read-out: Dissociation constant (KD), CBP KIX, ITC, 25°C, 10 mM MES pH 6.5, 50 mM NaCl, CBP KIX titrated into TAD, KD from a representative experiment with standard error for fit to one-site binding model (n = 2 or 3), nd = no detectable binding under experimental conditions"}, "[2]": {"target": "CRY1 CC peptide", "assay": "Isothermal titration calorimetry", "set-up": "species or system mouse", "conditions": "read-out: Dissociation constant (KD), CRY1 CC, ITC, 25°C, 10 mM MES pH 6.5, 50 mM NaCl, CRY1 CC titrated into TAD, KD from a representative experiment with standard error for fit to one-site binding model (n = 2 or 3), nd = no detectable binding under experimental conditions"}}}
{"substance": "BMAL1 619X: BMAL1 TAD truncation mutant that removed the C-terminal seven residues", "values": [{"measurement": "Kd", "setting": "[1]", "value": "4.44 ± 0.23", "unit": "µM"}, {"measurement": "Kd", "setting": "[2]", "value": "19.7 ± 2.57", "unit": "µM"}]}
